# Measurements published in patent publication US20250296971A1, “GASTRIC INHIBITORY PEPTIDE RECEPTOR LIGANDS” (priority 2021, published 2025).
# *1 amine or outer side, *2 acyl side, *3 side chain or, on linkers, in order; H or OH if unused. Where a SMILES comes first, the peptide text is derived from it. Bridges are numbered along the chain shown (N, C = ends). [ ]: non-standard residue; d: D form. The star is where a group is joined. X5 = NC(=O)[C@H](CCCCNC(=O)CN1CCN(CC(=O)O)CCN(CC(=O)O)CCN(CC(=O)O)CC1)NC(=O)CCC(=O)NCCCOCCOCCOCCCN*; X11 = O=C(CN1CCN2CCN3CCN(CC1)CC(=O)[O][In]([O]C(=O)C2)[O]C(=O)C3)NCCCOCCOCCOCCCN*; Pro(trans-4-NH2) = O=C([C@@H]1C[C@@H](N[*:3])CN1[*:1])[*:2]; DOTA = O=C(O)CN1CCN(CC(=O)O)CCN(CC(=O)*)CCN(CC(=O)O)CC1; Trp(5-Cl) = N[C@@H](Cc1c[nH]c2ccc(Cl)cc12)C(=O)O; Phe(3,4-Cl2) = N[C@@H](Cc1ccc(Cl)c(Cl)c1)C(=O)O; Phe(3,5-Cl2) = N[C@@H](Cc1cc(Cl)cc(Cl)c1)C(=O)O; Pyridine(2,6-diCH2) = c1cc(C[*:1])nc(C[*:2])c1; Trp(7-aza) = N[C@@H](Cc1c[nH]c2ncccc12)C(=O)O; Oic = O=C(O)[C@@H]1C[C@@H]2CCCC[C@@H]2N1; Phe(4-Cl) = N[C@@H](Cc1ccc(Cl)cc1)C(=O)O; 1Nal = N[C@@H](Cc1cccc2ccccc12)C(=O)O; mXylylene = c1cc(C[*:1])cc(C[*:2])c1; X7 = c1cc(CSCCN[*:2])cc(C[*:1])c1; Hyp = O=C(O)[C@@H]1C[C@@H](O)CN1; Suc = O=C(CCC(=O)[*:2])[*:1]; Thp = NC1(C(=O)O)CCOCC1; Aib = CC(C)(N)C(=O)O; Nlys = NCCCCNCC(=O)O
# Biological target: T1, GIPR (CHO-K1-hGIPR cells) (Homo sapiens, UniProt P48546)
# T1 construct: host or cells: CHO-K1
# T1 sequence (P48546 22-466): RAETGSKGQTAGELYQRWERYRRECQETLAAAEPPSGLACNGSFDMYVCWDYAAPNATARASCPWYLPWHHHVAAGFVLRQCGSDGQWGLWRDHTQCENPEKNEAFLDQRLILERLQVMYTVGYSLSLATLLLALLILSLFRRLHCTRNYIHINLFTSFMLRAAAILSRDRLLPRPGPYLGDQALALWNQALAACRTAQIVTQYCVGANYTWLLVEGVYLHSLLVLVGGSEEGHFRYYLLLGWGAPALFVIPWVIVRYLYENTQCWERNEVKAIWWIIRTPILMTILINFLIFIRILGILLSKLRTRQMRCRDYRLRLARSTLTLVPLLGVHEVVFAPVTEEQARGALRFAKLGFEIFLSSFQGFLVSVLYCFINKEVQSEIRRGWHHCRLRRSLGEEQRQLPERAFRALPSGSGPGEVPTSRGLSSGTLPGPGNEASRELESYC
# Assay: FACS binding assay
# Details: competition with 20 nM GIP-057, 4° C. for 1 hour, read-out: pIC50 Category (converted)
# Summary of the method: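 Steps: detach CHO-K1-hGIPR cells (Accutase); wash in PBS/1% FCS; adjust to 500.000 cells per mL; wash ice-cold; incubate APC-streptavidin 1 μg/mL, 30 min on ice; wash twice; acquire on flow cytometer; fit MFI-concentration data with a four-parameter logistic model.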
row,SMILES,IC50 [nM]
1,"CC[C@H](C)[C@@H]1NC(=O)[C@H](CC(C)C)NC(=O)C2(CCOCC2)NC(=O)[C@@H](NC(=O)[C@@H](CC(C)C)NC(=O)[C@H](CCC(=O)O)NC(=O)[C@@H]2C[C@@H](NC(=O)CN3CCN(CC(=O)O)CCN(CC(=O)O)CCN(CC(=O)O)CC3)CN2C(=O)[C@H](Cc2cc(Cl)cc(Cl)c2)NC(=O)[C@H](Cc2c[nH]c3ccccc23)NC(=O)[C@H](CC(=O)O)NC(C)=O)CSCc2cccc(n2)CSC[C@@H](C(N)=O)NC1=O [GIP-402, Ac-Asp-Trp-Egn-Tap(DOTA)-Glu-leu-[Cys(2Lut)-Thp-Leu-Ile-Cys]-NH2] (Ac-DW[Phe(3,5-Cl2)][Pro(trans-4-NH2)](DOTA)E[dL]C[Thp]LIC-NH2; linker 7-11 via Pyridine(2,6-diCH2))",10 to 79.4
2,CC[C@H](C)[C@@H]1NC(=O)[C@H](CC(C)C)NC(=O)[C@H](C)NC(=O)[C@@H](NC(=O)[C@H](CC(C)C)NC(=O)[C@H](CCC(=O)O)NC(=O)[C@@H]2CCCN2C(=O)[C@H](Cc2c[nH]c3ccccc23)NC(=O)[C@H](Cc2c[nH]c3ccccc23)NC(=O)[C@H](CC(=O)O)NC(=O)[C@H](Cc2ccc(O)cc2)NC(=O)[C@@H](N)CCSC)CSCc2cccc(c2)CSC[C@H](C(N)=O)NC1=O [GIP-310] (H-MYDWWPELCALI[dC]-NH2; linker 9-13 via mXylylene),100 to 794
3,"CC[C@H](C)[C@@H]1NC(=O)[C@H](CC(C)C)NC(=O)C(C)(C)NC(=O)[C@@H](NC(=O)[C@@H](CC(C)C)NC(=O)[C@H](CCC(=O)O)NC(=O)[C@@H]2CCCN2C(=O)[C@H](Cc2cccc3ccccc23)NC(=O)[C@H](Cc2c[nH]c3ncccc23)NC(=O)[C@H](CC(=O)O)NC(C)=O)CSCc2cccc(c2)CSC[C@@H](C(=O)NCCCOCCOCCOCCCNC(=O)CCC(=O)N[C@@H](CCCCNC(=O)CN2CCN(CC(=O)O)CCN(CC(=O)O)CCN(CC(=O)O)CC2)C(N)=O)NC1=O [GIP-303, Ac-Asp-7Nw-1Ni-Pro-Glu-leu-[Cys(3MeBn)-Aib-Leu-Ile-Cys]-Ttds-Lys(DOTA)-NH2] (Ac-D[Trp(7-aza)][1Nal]PE[dL]C[Aib]LIC-X5; linker 7-11 via mXylylene)",> 1000

# Next, values leading:
row,IC50 [nM],SMILES
1,> 1000,"CC[C@H](C)[C@@H]1NC(=O)[C@H](CC(C)C)NC(=O)C2(CCOCC2)NC(=O)[C@@H](NC(=O)[C@@H](CC(C)C)NC(=O)[C@H](CCC(=O)O)NC(=O)[C@@H]2C[C@@H]3CCCC[C@@H]3N2C(=O)[C@H](Cc2ccc(Cl)c(Cl)c2)NC(=O)[C@H](Cc2ccc(Cl)c(Cl)c2)NC(=O)[C@H](CC(=O)O)NC(C)=O)CSCc2cccc(n2)CSC[C@@H](C(N)=O)NC1=O [GIP-356, Ac-Asp-Eaa-Eaa-Oic-Glu-leu-[Cys(2Lut)-Thp-Leu-Ile-Cys]-NH2] (Ac-D[Phe(3,4-Cl2)][Phe(3,4-Cl2)][Oic]E[dL]C[Thp]LIC-NH2; linker 7-11 via Pyridine(2,6-diCH2))"
2,> 1000,"CC[C@H](C)[C@@H]1NC(=O)[C@H](CC(C)C)NC(=O)C2(CCOCC2)NC(=O)[C@@H](NC(=O)[C@@H](CC(C)C)NC(=O)[C@H](CCC(=O)O)NC(=O)[C@@H]2C[C@@H](O)CN2C(=O)[C@H](Cc2ccc(Cl)cc2)NC(=O)[C@H](Cc2c[nH]c3ccccc23)NC(=O)[C@H](CC(=O)O)NC(C)=O)CSCc2cccc(n2)CSC[C@@H](C(N)=O)NC1=O [GIP-350, Ac-Asp-Trp-Pcf-Hyp-Glu-leu-[Cys(2Lut)-Thp-Leu-Ile-Cys]-NH2] (Ac-DW[Phe(4-Cl)][Hyp]E[dL]C[Thp]LIC-NH2; linker 7-11 via Pyridine(2,6-diCH2))"
3,100 to 794,"CC(=O)N[C@@H](CC(=O)O)C(=O)N[C@@H](Cc1c[nH]c2ccccc12)C(=O)N[C@@H](Cc1c[nH]c2ccc(Cl)cc12)C(=O)N1C[C@H](O)C[C@H]1C(=O)N[C@@H](CCC(=O)O)C(=O)N[C@H](CC(C)C)C(=O)N[C@H]1CSCc2cccc(n2)CSC[C@@H](C(N)=O)NC(=O)[C@H](CO)NC(=O)[C@H](CC(C)C)NC(=O)C2(CCOCC2)NC1=O [GIP-322, Ac-Asp-Trp-5Clw-Hyp-Glu-leu-[Cys(2Lut)-Thp-Leu-Ser-Cys]-NH2] (Ac-DW[Trp(5-Cl)][Hyp]E[dL]C[Thp]LSC-NH2; linker 7-11 via Pyridine(2,6-diCH2))"

# Same assay, conditions: competition with 20 nM GIP-057, 4° C., 1 hour, read-out: pIC50 Category (converted)
row,SMILES,IC50 [nM]
1,"CC[C@H](C)[C@@H]1NC(=O)[C@H](CC(C)C)NC(=O)C(C)(C)NC(=O)[C@@H](NC(=O)[C@@H](CC(C)C)NC(=O)[C@H](CCC(=O)O)NC(=O)[C@@H]2CCCN2C(=O)[C@H](Cc2c[nH]c3ccc(Cl)cc23)NC(=O)[C@H](Cc2c[nH]c3ccccc23)NC(=O)CCC(=O)O)CSCc2cccc(c2)CSC[C@@H](C(N)=O)NC1=O [GIP-198, HO-Succinyl-Trp-5Clw-Pro-Glu-leu-[Cys(3MeBn)-Aib-Leu-Ile-Cys]-NH2] (Suc-W[Trp(5-Cl)]PE[dL]C[Aib]LIC-NH2; linker 6-10 via mXylylene)",< 10
2,"CC[C@H](C)[C@@H]1NC(=O)[C@H](CC(C)C)NC(=O)C(C)(C)NC(=O)[C@@H](NC(=O)[C@@H](CC(C)C)NC(=O)[C@H](CCC(=O)O)NC(=O)[C@@H]2CCCN2C(=O)[C@H](Cc2c[nH]c3ccc(Cl)cc23)NC(=O)[C@H](Cc2c[nH]c3ccccc23)NC(=O)[C@H](CC(=O)O)NC(=O)CCC(=O)NCCCOCCOCCOCCCNC(=O)CN2CCN3CCN4CCN(CC2)CC(=O)[O][In]([O]C(=O)C3)[O]C(=O)C4)CSCc2cccc(c2)CSCCNC1=O [GIP-148, InDOTA-Ttds-Asp-Trp-5Clw-Pro-Glu-leu-[Cys(3MeBn)-Aib-Leu-Ile-AET]] ({X11-Suc}-DW[Trp(5-Cl)]PE[dL]C[Aib]LI; linker 7-C via X7)",< 10
3,"CC[C@H](C)[C@@H]1NC(=O)[C@H](CC(C)C)NC(=O)C(C)(C)NC(=O)[C@@H](NC(=O)[C@@H](CC(C)C)NC(=O)[C@H](CCC(=O)O)NC(=O)[C@@H]2CCCN2C(=O)[C@H](Cc2c[nH]c3ccc(Cl)cc23)NC(=O)[C@H](Cc2c[nH]c3ccccc23)NC(=O)[C@H](CC(=O)O)NC(=O)CCC(=O)NCCCOCCOCCOCCCNC(=O)CN2CCN(CC(=O)O)CCN(CC(=O)O)CCN(CC(=O)O)CC2)CNCc2cccc(c2)C[S+]([O-])CCNC1=O (stereo partly drawn) [GIP-098, DOTA-Ttds-Asp-Trp-5Clw-Pro-Glu-leu-[Dap(3MeBn)-Aib-Leu-Ile-AETO]]",< 10

# Further lines, results first:
row,IC50 [nM],SMILES
1,< 10,"CC[C@H](C)[C@@H]1NC(=O)[C@H](CC(C)C)NC(=O)C2(CCOCC2)NC(=O)[C@@H](NC(=O)[C@@H](CC(C)C)NC(=O)[C@H](CCC(=O)O)NC(=O)[C@@H]2C[C@@H](O)CN2C(=O)[C@H](Cc2c[nH]c3ccc(Cl)cc23)NC(=O)[C@H](Cc2c[nH]c3ccccc23)NC(=O)[C@H](CC(N)=O)NC(C)=O)CSCc2cccc(n2)CSC[C@@H](C(N)=O)NC1=O [GIP-190, Ac-Asn-Trp-5Clw-Hyp-Glu-leu-[Cys(2Lut)-Thp-Leu-Ile-Cys]-NH2] (Ac-NW[Trp(5-Cl)][Hyp]E[dL]C[Thp]LIC-NH2; linker 7-11 via Pyridine(2,6-diCH2))"
2,< 10,"CC[C@H](C)[C@@H]1NC(=O)[C@H](CC(C)C)NC(=O)C2(CCOCC2)NC(=O)[C@@H](NC(=O)[C@@H](NC(=O)[C@H](CCC(=O)O)NC(=O)[C@@H]2C[C@@H](O)CN2C(=O)[C@H](Cc2c[nH]c3ccc(Cl)cc23)NC(=O)[C@H](Cc2c[nH]c3ccccc23)NC(=O)[C@H](CC(=O)O)NC(C)=O)C(C)C)CSCc2cccc(n2)CSC[C@@H](C(N)=O)NC1=O [GIP-219, Ac-Asp-Trp-5Clw-Hyp-Glu-Val-[Cys(2Lut)-Thp-Leu-Ile-Cys]-NH2] (Ac-DW[Trp(5-Cl)][Hyp]EVC[Thp]LIC-NH2; linker 7-11 via Pyridine(2,6-diCH2))"
3,< 10,"CC[C@H](C)[C@@H]1NC(=O)[C@H](CC(C)C)NC(=O)[C@H](Cc2ccccc2)NC(=O)[C@@H](NC(=O)[C@@H](CC(C)C)NC(=O)[C@H](CCC(=O)O)NC(=O)[C@@H]2C[C@@H](O)CN2C(=O)[C@H](Cc2c[nH]c3ccc(Cl)cc23)NC(=O)[C@H](Cc2c[nH]c3ccccc23)NC(=O)[C@H](CC(=O)O)NC(C)=O)CSCc2cccc(n2)CSC[C@@H](C(N)=O)NC1=O [GIP-228, Ac-Asp-Trp-5Clw-Hyp-Glu-leu-[Cys(2Lut)-Phe-Leu-Ile-Cys]-NH2] (Ac-DW[Trp(5-Cl)][Hyp]E[dL]CFLIC-NH2; linker 7-11 via Pyridine(2,6-diCH2))"
4,< 10,"CC[C@H](C)[C@@H]1NC(=O)[C@H](CC(C)C)NC(=O)C2(CCOCC2)NC(=O)[C@@H](NC(=O)[C@@H](CC(C)C)NC(=O)[C@H](CCC(=O)O)NC(=O)CN(CCCCN)C(=O)[C@H](Cc2c[nH]c3ccc(Cl)cc23)NC(=O)[C@H](Cc2c[nH]c3ccccc23)NC(=O)[C@H](CC(=O)O)NC(C)=O)CSCc2cccc(n2)CSC[C@@H](C(N)=O)NC1=O [GIP-186, Ac-Asp-Trp-5Clw-Nlys-Glu-leu-[Cys(2Lut)-Thp-Leu-Ile-Cys]-NH2] (Ac-DW[Trp(5-Cl)][Nlys]E[dL]C[Thp]LIC-NH2; linker 7-11 via Pyridine(2,6-diCH2))"
5,< 10,"CC[C@H](C)[C@@H]1NC(=O)[C@H](CC(C)C)NC(=O)C2(CCOCC2)NC(=O)[C@@H](NC(=O)[C@@H](CC(C)C)NC(=O)[C@H](CCC(=O)O)NC(=O)[C@@H]2C[C@@H](O)CN2C(=O)[C@H](Cc2c[nH]c3ccc(Cl)cc23)NC(=O)[C@H](Cc2ccc(Cl)c(Cl)c2)NC(=O)[C@H](CC(=O)O)NC(C)=O)CSCc2cccc(n2)CSC[C@@H](C(N)=O)NC1=O [GIP-211, Ac-Asp-Eaa-5Clw-Hyp-Glu-leu-[Cys(2Lut)-Thp-Leu-Ile-Cys]-NH2] (Ac-D[Phe(3,4-Cl2)][Trp(5-Cl)][Hyp]E[dL]C[Thp]LIC-NH2; linker 7-11 via Pyridine(2,6-diCH2))"
